Source: patent US6406856B1, “Biosensor” (Aberdeen University, priority 1998, dated 2002)

Tests used:
[1] = system: non-dividing LucΔ S. cerevisiae strain cells; experiment: Non-dividing cell assay, light output, 96-well plates; assay type: cell-based, Saccharomyces cerevisiae; conditions: dilutions in 4.5% ethanol, cells in ddH2O, exposure 3, 5, 7, 9 h
Method: (§1) The following procedure was designed to monitor the effect of increasing the exposure time up to 9 hours and to determine the different responses of dividing and non-dividing biosensor cells to the presence of DNA-damaging agents. For assay preparation, the diluent used was ethanol at 4.5% final concentration. All ethidium bromide dilution standards were prepared in glassware. […] The black 96-well plates were covered with a plate sealer and incubated at 30° C. before and between readings. […] Additional of 100 μl citrate phosphate buffer (pH 2.5), containing 0.2 mM luciferin, was performed at each time point before luminescence quantification in a Lucy Anthos 1 luminometer using the Stingray (v2.0b31) software package. Following luminescence quantification 100 μl was removed from the blank well in the dividing assays for OD600 measurements and cell counts. […]
In FIG. 14, the effect of ethidium bromide on non-dividing cells was measured by recording the light output from cells in wells containing ethidium bromide dilutions prepared in 4.5% ethanol. […]

[2] = system: dividing LucΔ S. cerevisiae strain cells; experiment: Dividing cell assay, luciferase activity, 96-well plates; assay type: cell-based, Saccharomyces cerevisiae; conditions: dilutions in 4.5% ethanol, 1x SC (-ura), exposure 3, 5, 7, 9 h
Method: as §1
Thus in FIG. 13, the effect of ethidium bromide on dividing cells was measured by recording luciferase activity from cells in wells containing ethidium bromide dilutions prepared in 4.5% ethanol. […]

[3] = system: S. cerevisiae pPLUCΔP biosensor; experiment: S. cerevisiae pPLUCΔP biosensor luminescence toxicity assay; conditions: for detection of toxic substance by change in luminescence: 10 min exposure, toxicant at pH 5.5, FIGS. 5 and 6
Method: In vivo luciferase activity assays using S. cerevisiae require acidification to allow the substrate for the light reaction (luciferin) to freely enter intact cells. Therefore, a two-step assay procedure was designed to incorporate separate toxicity analysis without pH adjustment and subsequent acidification for luminescence quantification. In preparation for the assay, S. cerevisiae cells were harvested at peak luminescence (around 3 to 4×10^8 cells/ml), centrifuged at 700 g (3000 rpm) and washed twice in 5 mM KCl; keeping the original volume constant for the first wash, but halved for second wash (allowing for modified dilution in assay). The first step (exposure), 50 μl of washed S. cerevisiae cells are added to a 450 μl sample (pH generally not important). In an alternative procedure the S. cerevisiae can also be resuspended in water rather than in 5 mM Kcl. The second step (acificiation), 500 μl citrate phosphate buffer (pH2.5), also containing the luciferan (0.1 mM final concentration in 1 ml sample), are added to make up 1 ml total volume for subsequent luminescence quantification. The exposure time is generally 10 minutes, but this can be lengthened or shortened depending on assay requirements (e.g. FIGS. 10a, 10b and 11). The assay allows for the full pH durability of S. cerevisiae to be exploited as prior pH adjustment of samples is not required. Luminescence of the sample containing cuvettes are compared to a blank containing diluent(s) used in the assay. This blank defines 100% luminescence.
Dilutions were then made of the stock solutions using deionised water adjusted to pH5.5, as above. The cells were harvested at peak luminescence, centrifuged at 700 g and washed twice in 5 M KCl; keeping the original volume constant. The toxicant (450 μl) was added to each cuvette. The final volume was then made up to 500 μl using 3 to 4×10^7 cells. After 10 min, 500 μl of citrate phosphate buffer (pH 2.5) containing 5 μl of 20 mM luciferin was added to each cuvette and the bioluminescence was monitored.

With `CC[n+]1c(-c2ccccc2)c2cc(N)ccc2c2ccc(N)cc21` [ethidium bromide] the “effect on non-dividing cells (light output)” value [1] was “no clear toxic effect” and the “effect on dividing cells (luciferase activity)” value [2] was “clear decrease in cell division”.

With `[Cu]` [copper] the “detection of copper after 48 hours growth of the biosensor” value ([3]; 10 min copper exposure, sensor cells used after 48 hours, FIG. 11) was “still actively detecting” and the “detection of toxic substance by change in luminescence” value [3] was “can detect”.

In the case of `Oc1cc(Cl)cc(Cl)c1` [3,5-dichlorophenol], the “detection of toxic substance by change in luminescence” value [3] is reported as “can detect”.
